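Results reflect a 48-hour exposure of cells in 96-well plates to compound at five concentrations. GI50 is the concentration that inhibits growth by half.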 Active and inactive are the calls of the source. Cut-off read from the data, not from the text of the source: active = GI50 up to about 1.1 µM and inactive = higher.
Tests used:
Assay in all cases: DTP human tumour cell line panel, 48 h
HCC 2998 = test system: HCC 2998
ACHN = test system: ACHN
HL-60 = test system: HL-60
SK-MEL-5 = test system: SK-MEL-5
MOLT-4 = test system: MOLT-4
EKVX = test system: EKVX
KM12 = test system: KM12
NCI-H23 = test system: NCI-H23
SW-620 = test system: SW-620
SR = test system: SR
RPMI-8226 = test system: RPMI-8226
SF-295 = test system: SF-295
HOP-92 = test system: HOP-92
OVCAR-8 = test system: OVCAR-8
HT-29 = test system: HT-29
SNB-19 = test system: SNB-19
M14 = test system: M14
HCT-116 = test system: HCT-116
UACC-257 = test system: UACC-257
NCI-H522 = test system: NCI-H522

Row | Structure (SMILES) | GI50 (HCC 2998) | GI50 (ACHN) | GI50 (HL-60) | GI50 (SK-MEL-5) | GI50 (MOLT-4) | GI50 (EKVX) | GI50 (KM12) | GI50 (NCI-H23) | GI50 (SW-620) | GI50 (SR) | GI50 (RPMI-8226) | GI50 (SF-295) | GI50 (HOP-92) | GI50 (OVCAR-8) | GI50 (HT-29) | GI50 (SNB-19) | GI50 (M14) | GI50 (HCT-116) | GI50 (UACC-257) | GI50 (NCI-H522)
1 | CC1(C)CC(C#Cc2ccccc2)CC(C)(C)N1O | 16.3 µM (inactive) | 25.8 µM (inactive) | 14.8 µM (inactive) | 16.1 µM (inactive) | 46 µM (inactive) | 23.6 µM (inactive) | 17.3 µM (inactive) | 15.7 µM (inactive) | 19.6 µM (inactive) | 52.7 µM (inactive) | 5.18 µM (inactive) | 15.6 µM (inactive) | 15.2 µM (inactive) | 20.7 µM (inactive) | 14.2 µM (inactive) | 30.5 µM (inactive) | 19.1 µM (inactive) | 20 µM (inactive) | 16.6 µM (inactive) | –
2 | CC(=O)C(=[N+]=[N-])C(=O)OCCOC(=O)C(=[N+]=[N-])C(C)=O | > 1 µM (active) | > 1 µM (active) | > 1 µM (active) | > 1 µM (active) | > 1 µM (active) | > 1 µM (active) | > 1 µM (active) | > 1 µM (active) | – | > 1 µM (active) | > 1 µM (active) | > 1 µM (active) | > 1 µM (active) | > 1 µM (active) | > 1 µM (active) | > 1 µM (active) | > 1 µM (active) | > 1 µM (active) | > 1 µM (active) | –
3 | O=C(c1c(F)c(F)c(F)c(F)c1F)n1c(=S)n(C(=O)c2c(F)c(F)c(F)c(F)c2F)c2ccccc21 | > 100 µM (inactive) | > 100 µM (inactive) | 12.9 µM (inactive) | > 100 µM (inactive) | 20 µM (inactive) | – | > 100 µM (inactive) | – | 46.5 µM (inactive) | 39.9 µM (inactive) | 44.4 µM (inactive) | > 100 µM (inactive) | > 100 µM (inactive) | > 100 µM (inactive) | > 100 µM (inactive) | > 100 µM (inactive) | > 100 µM (inactive) | > 100 µM (inactive) | > 100 µM (inactive) | –
4 | COC1(OC)C(N(C)C)=C(Cl)C(=O)/C1=C/C=O | > 100 µM (inactive) | 92 µM (inactive) | 77.4 µM (inactive) | > 100 µM (inactive) | > 100 µM (inactive) | – | – | > 100 µM (inactive) | 97.1 µM (inactive) | 57.3 µM (inactive) | 61 µM (inactive) | > 100 µM (inactive) | 47 µM (inactive) | > 100 µM (inactive) | > 100 µM (inactive) | > 100 µM (inactive) | > 100 µM (inactive) | > 100 µM (inactive) | 83.8 µM (inactive) | –
5 | COc1ccc2c(c1)N=C(N)n1c(nc3ccccc31)S2 | 48.9 µM (inactive) | 21.3 µM (inactive) | 3.79 µM (inactive) | 7.29 µM (inactive) | 5.28 µM (inactive) | – | 15.5 µM (inactive) | 10.4 µM (inactive) | 39.9 µM (inactive) | 5.52 µM (inactive) | 4.47 µM (inactive) | 38.5 µM (inactive) | 11.7 µM (inactive) | – | 3.96 µM (inactive) | 82 µM (inactive) | 4.01 µM (inactive) | 3.65 µM (inactive) | 11.8 µM (inactive) | 12.2 µM (inactive)
6 | COP(=O)(CC(=O)C1OC(OCc2ccccc2)C(OCc2ccccc2)C(OCc2ccccc2)C1OCc1ccccc1)OC (stereo not drawn) | 3.32 µM (inactive) | 5.71 µM (inactive) | 4.39 µM (inactive) | 4.23 µM (inactive) | 2.69 µM (inactive) | 8.07 µM (inactive) | 4.16 µM (inactive) | 8.47 µM (inactive) | 12.8 µM (inactive) | 3.26 µM (inactive) | – | 5.36 µM (inactive) | 10.4 µM (inactive) | 5.87 µM (inactive) | 6.19 µM (inactive) | 11.4 µM (inactive) | 10.9 µM (inactive) | 5.11 µM (inactive) | 6.81 µM (inactive) | 9.51 µM (inactive)
